These results are taken from patent US20240366693A1, “COMPOSITIONS FOR ENHANCING IMMUNOTHERAPY EFFICACY IN COLORECTAL CANCER TREATMENT” (The Chinese University of Hong Kong, priority 2023, published 2024).

One data set deals with CD4+ T cells. Nature of the data set: Foxp3+ Treg differentiation of CD4+ T cells in vitro. The class given is cell-based, mouse. How it is done:
T cells were isolated from spleens of tumour-bearing mice by negative selection using magnetic cell separation (EasySep mouse T cell isolation kit, CD8+ T cell isolation kit or CD4+ CD25+ Regulatory T cell Isolation Kit II; STEMCELL Technologies, Vancouver, Canada). Isolated T cells were cultured in Roswell Park Memorial Institute 1640 medium supplemented with 10% FBS, 50 μM β-mercaptoethanol, 10 ng/ml mouse recombinant interleukin-2 (IL-2), 0.1 ng/mL transforming growth factor β (TGFβ) and activated with Dynabeads mouse anti-CD3/CD28 beads (Thermo Fisher Scientific, Waltham, MA) for 72 hours. Cells were then collected for analysis.

The test system of a further data set is MC-38. Description: MC38 rectum orthotopic tumour model. The format is in vivo, mouse. How it is done:
A MSI type mouse CRC cell line, MC-38 cell mix [5×10^5 cells in 10 μL Matrigel (354248, Corning, Manassas, US) per mouse] was orthotopically implanted into the rectum of C57BL/6. […] RMP1-14, Bio X Cell, West Lebanon, US) or control IgG (100 μg per mouse, BP0089, Colone: 2A-3, Bio X Cell) was injected intraperitoneally into MC-38 bearing mice, and followed by total five injections with three days interval one week after MC38 implantation. For tumour-infiltrating immune cell analysis, tumour from MC-38 and CT-26 bearing rectal orthotopic mouse models was minced on ice and digested in PBS buffer containing 0.5 mg/mL collagenase IV and 0.25 mg/ml DNase I at 37° C. for 30 min. After digestion, tumour tissue was filtered through a 70 μm cell strainers, and then distributed into different panels. For the surface staining of MDSC, cells were stained with Brilliant Violet 605 anti-mouse CD45 antibody (30-F11) (103140, BioLegend), PerCP/Cyanine5.5 anti-mouse/human CD11b antibody (M1/70) (101228, BioLegend), PE anti-mouse Ly-6G/Ly-6C (Gr-1) antibody (RB6-8C5). MDSC was gated in CD45^+ CD11b^+ Gr-1^+. For CD8 functional markers staining, the procedures were similar with the in vitro T cell analysis. Antibodies used for staining are as following: Brilliant Violet 605 anti-mouse CD45 antibody (30-F11) (103140, BioLegend), PE anti-mouse CD3 antibody (17A2) (100206, BioLegend), Brilliant Violet anti-mouse CD8a antibody (53-6.7) (100738, BioLegend), PE/Cyanine5 anti-mouse CD4 antibody (GK1.5) (100410, BioLegend), PE/Cyanine7 anti-human/mouse Granzyme B recombinant antibody (QA16A02) (372214, BioLegend), FITC anti-mouse IFN-γ antibody (XMG1.2) (505806, BioLegend), Brilliant Violet 711 anti-moue TNF-α (MP6-XT22) (506349, BioLegend). Flow Cytometry was performed on FACSAria cell sorter (BD Biosciences, Franklin Lakes, US). Data was analyzed by FlowJo 10.4.

The subject of the next data set is CT-26. Nature of the data set: CT26 rectum orthotopic tumour model. The class given is in vivo, mouse. The text has this: CT-26 tumour-bearing BALB/c mice with the same setting and treatment of MC-38 orthotopic model was developed to evaluate the efficacy of αPD-1 antibody immunotherapy on microsatellite stable (MSS)-type colorectal cancer. All experimental procedures were approved by the Chinese University of Hong Kong Animal Ethics Committee.
For tumour-infiltrating immune cell analysis, tumour from MC-38 and CT-26 bearing rectal orthotopic mouse models was minced on ice and digested in PBS buffer containing 0.5 mg/mL collagenase IV and 0.25 mg/ml DNase I at 37° C. for 30 min. After digestion, tumour tissue was filtered through a 70 μm cell strainers, and then distributed into different panels. For the surface staining of MDSC, cells were stained with Brilliant Violet 605 anti-mouse CD45 antibody (30-F11) (103140, BioLegend), PerCP/Cyanine5.5 anti-mouse/human CD11b antibody (M1/70) (101228, BioLegend), PE anti-mouse Ly-6G/Ly-6C (Gr-1) antibody (RB6-8C5). MDSC was gated in CD45^+ CD11b^+ Gr-1^+. For CD8 functional markers staining, the procedures were similar with the in vitro T cell analysis. Antibodies used for staining are as following: Brilliant Violet 605 anti-mouse CD45 antibody (30-F11) (103140, BioLegend), PE anti-mouse CD3 antibody (17A2) (100206, BioLegend), Brilliant Violet anti-mouse CD8a antibody (53-6.7) (100738, BioLegend), PE/Cyanine5 anti-mouse CD4 antibody (GK1.5) (100410, BioLegend), PE/Cyanine7 anti-human/mouse Granzyme B recombinant antibody (QA16A02) (372214, BioLegend), FITC anti-mouse IFN-γ antibody (XMG1.2) (505806, BioLegend), Brilliant Violet 711 anti-moue TNF-α (MP6-XT22) (506349, BioLegend). Flow Cytometry was performed on FACSAria cell sorter (BD Biosciences, Franklin Lakes, US). Data was analyzed by FlowJo 10.4.

In another data set the target is T1, human AHR protein (Homo sapiens, UniProt P35869).
T1 sequence (P35869 11-848): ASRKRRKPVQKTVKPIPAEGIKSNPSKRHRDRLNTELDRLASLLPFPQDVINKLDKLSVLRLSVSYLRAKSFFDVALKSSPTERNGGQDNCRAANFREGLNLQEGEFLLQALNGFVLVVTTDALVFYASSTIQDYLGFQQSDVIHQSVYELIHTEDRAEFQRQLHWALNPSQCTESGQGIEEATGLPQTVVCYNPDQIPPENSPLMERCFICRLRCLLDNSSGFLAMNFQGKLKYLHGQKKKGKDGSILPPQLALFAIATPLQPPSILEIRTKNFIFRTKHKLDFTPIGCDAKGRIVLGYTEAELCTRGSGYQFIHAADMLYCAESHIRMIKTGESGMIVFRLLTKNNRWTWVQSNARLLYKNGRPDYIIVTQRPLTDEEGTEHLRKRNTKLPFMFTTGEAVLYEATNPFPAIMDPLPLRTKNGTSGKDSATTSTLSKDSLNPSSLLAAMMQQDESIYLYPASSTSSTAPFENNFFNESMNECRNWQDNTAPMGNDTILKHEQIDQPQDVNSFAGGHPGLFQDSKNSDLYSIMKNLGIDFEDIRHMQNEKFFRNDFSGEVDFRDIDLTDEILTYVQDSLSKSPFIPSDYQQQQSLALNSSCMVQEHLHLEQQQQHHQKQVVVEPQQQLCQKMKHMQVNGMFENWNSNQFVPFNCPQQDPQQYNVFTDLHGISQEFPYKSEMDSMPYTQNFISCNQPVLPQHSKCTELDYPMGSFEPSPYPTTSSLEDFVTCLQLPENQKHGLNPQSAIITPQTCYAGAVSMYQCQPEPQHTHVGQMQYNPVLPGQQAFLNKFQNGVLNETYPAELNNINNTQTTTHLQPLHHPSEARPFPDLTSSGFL
Nature of the data set: biochemical. The format is binding. The source says:
We also performed the surface plasma resonance (SPR) assay to explore the interaction between ICA/Kyn with the human AHR receptor. […] These support our hypothesis that ICA displaces Kyn from AHR receptor and inhibited Kyn-mediated Treg differentiation through receptor competition.

The subject of another data set is CT26. Description: ICA model in CT26 syngeneic mice with anti-PD1 and Kyn supplementation. The format is in vivo, mouse. To be noted: Kyn 10 mg/kg i.p. twice weekly. How it is done:
For indolecarboxylic acid (ICA) model, ICA (18 mg/kg, Sigma-Aldrich, St. Louis, MO) was gavaged to mice daily. Tumour inoculation and dosing schedule of anti-PD1 or isotype control is the same as described above. After the outgrowth of palpable tumours, kynurenine (Kyn, 10 mg/kg, Sigma-Aldrich) was intraperitoneally injected into mice twice weekly.

The next data set deals with CD8+ T cells. Nature of the data set: Cytotoxic CD8+ T cell markers, T cells from human PBMC. The class given is cell-based. To be noted: TH1020 with butyrate. How it is done:
T cells isolated from healthy human peripheral blood mononuclear cells (PBMC) using immunomagnetic negative selection kit (17951, Stemcell Technologies, Vancouver, CA). Isolated T cells were then cultured in complete RPMI-1640 medium supplied with human CD3/CD28 magnet beads (11161D, Thermo Fisher Scientific, Waltham, US) and 30 U/ml recombinant human IL-2 (589104, BioLgend, San Diego, US) for expiation and activation for three days. Mouse T cells were isolated from the spleen of naïve mice and purified with Mouse T cell isolation kit (19851, Thermo Fisher Scientific, Waltham, US), cultured in complete RPMI-1640 medium with mouse CD3/CD28 beads (11456D, Thermo Fisher Scientific, Waltham, US) and 30 U/ml recombinant mouse IL-2 (575404, BioLegend, San Diego, US).
Cytotoxic CD8+ T cell markers Granzyme B, IFN-γ, TNF-α under the in vitro treatments of R.i CM, NaBu or TLR5 inbibitor TH1020 (HY-116961, MedChemExpress, Monmouth Junction, US) were analyzed with flow cytometry. Isolated human T cells were stimulated with 30 ng/ml PMA, 1 μg/ml ionomycin and 2.5 μg/ml monensin in complete RPMI-1640 medium at 37° C. for 4 hours. […]

For a further data set, the system named is NF-κB. Nature of the data set: Phospho-NF-κB p65 in activated Jurkat E6.1 T cells. The conditions noted are these: TH1020. The format is cell-based, human. How it is done: Phospho-NF-κB p65 (Ser536) Rabbit mAb (3033, Cell Signalling Technology, Danvers, US, 1:1000) and NF-κB p65 (D14E12) Rabbit mAb (8242, Cell Signalling Technology, Danvers, US, 1:1000) were used to measure NF-κB nuclear translocation in αCD3/αCD28/IL2 activated Jurkat E6.1 T cells.
Normal human epithelial cell NCM460, human CRC cell lines HCT116, LoVo, SW480, and mouse CRC cell lines MC38 and CT26 were cultured in Dulbecco's Modified Eagle's Medium (DMEM) with 10% fetal bovine serum (FBS) and 1% penicillin-streptomycin (P/S). Jurkat E6.1 (TIB-152, ATCC) was cultured in RPMI-1640 supplied with 10% FBS and 1% penicillin-streptomycin and activated in 3 μg/ml anti-CD3 (300332, BioLgend, San Diego, US), 5 μg/ml anti-human CD28 (302934, BioLgend, San Diego, US) and 100 IU/ml recombinant human IL-2 (589104, BioLgend, San Diego, US) pre-coated wells for 3 days.

Where [1] appears, read: treatment alone vs αPD-1 therapy and control groups.

Take `O=Cc1c[nH]c2ccccc12` [IAld, indole-3-carboxaldehyde, reference compound]: in the data set on CD4+ T cells (naïve CD4+ T cells, without Kyn), the “Treg differentiation, treatment alone” value was “none significantly affected Treg differentiation”.
For `CCCC(=O)[O-].[Na+]` [NaBu, sodium butyrate], the “efficiency of αPD-1 therapy in combination” value in the data set with MC-38 (combination of αPD-1 with R.i or NaBu) is “did not enhance the efficiency of αPD-1 therapy”. Besides, the “MC38 orthotopic tumour growth” value with MC-38 (monotreatment, R.i 1×10^8 CFU daily gavage, 150 mM NaBu in drinking water, αPD-1 100 μg per mouse) is “inhibited MC38 orthotopic tumour growth”. Further, in the data set with MC-38 (mouse, in vivo), the “Granzyme B+, IFN-γ+ and TNF-α+ CD8+ T cells” value is on record as “increased”; the MDSCs entry is “decreasing MDSCs”; the “tumour infiltrating CD8+ T cells” value was “increased infiltrating CD8^+ T cells”. For the same compound, in the data set on CT-26 (combination with anti-PD-1), the “anti-tumour effects in combination with anti-PD-1” value is listed as “further heightened the anti-tumour effects”; the “infiltrating and cytotoxic CD8+ T cells in combination with anti-PD-1” value is given as “additional effects on these immune cells”. Also, the “proportion of MDSCs in tumours” value in the data set with CT-26 (monotherapy) was “reduced the proportion of MDSCs in tumours”. In the data set on CT-26 (monotreatment), the “Granzyme B+, IFN-γ and TNF-α+ CD8+ T cells” value is recorded as “significantly increased”; the “proportion of infiltrating CD8+ T cells” value was “significantly increased”. Besides, in the data set with CT-26 (setting [1]), the tumour size result is recorded as “still reduced” and the tumour weight entry is reported as “still reduced”.
With `Cc1ccccc1N=Nc1ccc(NC(=O)c2ccnn2C)c(C)c1` [CH-233191, reference compound], the “Kyn and ICA effects on Treg differentiation” value with CD4+ T cells (CH-233191 10 μM) was “abolished both Kyn and ICA effects in mediating Treg differentiation”.
`Nc1ccccc1C(=O)CC(N)C(=O)O` (centres unmarked) [Kyn, Kynurenine, reference compound]: the Kd on human AHR protein turned out to be 61 µM. Moreover, in the data set with CT26, the “effect of Kyn supplementation on ICA immune effects” value is “also reversed by Kyn supplementation” and the “effect of Kyn supplementation on ICA tumour effect” value is recorded as “reversed the effect of ICA”. Moreover, the Treg differentiation result in the data set on CD4+ T cells (Kyn 50 μM, P<0.0001) is on record as “significantly induced Treg differentiation”.
Regarding `c1ccc(Cn2c(Sc3ncnc4c3sc3ncccc34)nnc2-c2ccncc2)cc1` [TH1020, reference compound], in the data set on CD8+ T cells, the “butyrate promotion of Granzyme B, IFN-γ and TNF-α in CD8+ T cells under TLR5 antagonist” value is “abolished the effective promotion of butyrate on Granzyme B, IFN-γ and TNF-α in CD8+ T cells”. Besides, the “R.i CM- and butyrate-induced phospho-NF-κB under TLR5 antagonist” value in the data set with NF-κB is listed as “inhibited by Th1020”.

One may read the Kd as the concentration at which binding is half-saturated. Read a low Kd as higher affinity.
